Results as given in patent US20230172885A1, “THIOL-CONTAINING COMPOUNDS FOR USE IN TREATING CORONAVIRUS” (priority 2020, published 2023).

Target: RBD^N501Y binding to ACE2 (Severe acute respiratory syndrome coronavirus 2, UniProt P0DTC2, N501Y)
Set-up: species or system SARS-CoV-2

SMILES	inhibition of binding of RBD^N501Y to ACE2
NCCS [Cysteamine]	potently inhibited
O[C@@H]1[C@@H](O)[C@@H](O[C@H]2O[C@H](CS)[C@@H](O)[C@H](O)[C@H]2O)O[C@H](CS)[C@H]1O [MUC-31, 6,6′-dithiotrehalose]	potently inhibited
